Results as given in US9539280B2, “Cartilage production promoter and prophylactic or therapeutic agent for diseases associated with cartilage damage” (NATIONAL UNIVERSITY CORPORATION TOTTORI UNIVERSITY, priority 2009, dated 2017).
Entries after “also recorded” stand apart in the source; their conditions may differ.

Experiments:
Assay type in all cases: in vivo, rabbit
[1] = tested on: glycosaminoglycan; assay: Histological observation, staining with alcian blue and image analysis
Description: (§1) As animal specimens, groups of female white rabbits (weight: about 2.0 kg) were used, the number of the rabbits in each of the groups being 3. The rabbits were habituated to the environment for one week from the time of delivery. Thereafter, 0.1 mg/kg of medetomidine was subcutaneously injected into each of the rabbits, and 25 mg/kg of Ketalar was intramuscularly injected thereto. About each of the rabbit specimens subjected to the injection anesthesia, the left knee joint was shaved, and then disinfected. Thereafter, approaching from the outside of the knee joint, the articular capsule was opened and the knee joint was exposed completely by shifting the patella to the inside. With reference to the experiment of Tamai et al. (Carbohydrate Polymers, 2002, vol. 48, pp. 369-378), three holes of 2 mm in diameter and 4 mm in depth were bored with a hand-drill at the proximal trochlear groove, distal trochlear groove, and the medial trochlear ridge. Thereafter, the sites were sufficiently rinsed, and then the articular capsule was sutured with 3-0PDS (polydioxanone). […]
(§2) The left femur of each of the damaged models in Example 1 was recovered, and then fixed with a 10% neutral buffered formalin aqueous solution (formaldehyde solution). […] The number of pixels in which a target color tone occupied was measured. […]

[2] = tested on: damaged models (holes bored at proximal trochlear groove, distal trochlear groove and medial trochlear ridge of left knee joint); assay: Macroscopic observation of the degree of healing in cartilage damaged models; conditions: after 3 weeks
Description: As animal specimens, groups of female white rabbits (weight: about 2.0 kg) were used, the number of the rabbits in each of the groups being 3. The rabbits were habituated to the environment for one week from the time of delivery. Thereafter, 0.1 mg/kg of medetomidine was subcutaneously injected into each of the rabbits, and 25 mg/kg of Ketalar was intramuscularly injected thereto. About each of the rabbit specimens subjected to the injection anesthesia, the left knee joint was shaved, and then disinfected. Thereafter, approaching from the outside of the knee joint, the articular capsule was opened and the knee joint was exposed completely by shifting the patella to the inside. With reference to the experiment of Tamai et al. (Carbohydrate Polymers, 2002, vol. 48, pp. 369-378), three holes of 2 mm in diameter and 4 mm in depth were bored with a hand-drill at the proximal trochlear groove, distal trochlear groove, and the medial trochlear ridge. Thereafter, the sites were sufficiently rinsed, and then the articular capsule was sutured with 3-0PDS (polydioxanone). The subcutaneous tissue and the skin were simultaneously sutured with stainless steel wires. […] The degree of healing of each of the damages was scored on the basis of Table 1, and evaluated. […] About each of the damaged model groups, the degree of healing was evaluated on the basis of the criterion in Example 2. […]

[3] = tested on: proteoglycan; assay: Histological observation, staining with safranin-O and image analysis
Description: as §1, §2

[4] = Observation of side effects during fucoidan administration; conditions: 1 g fucoidan in 50 mL water every day by natural intake, 3 weeks, female white rabbits
Description: From the day of the operation, initially every day, water (50 mL) in which 1 g of a fucoidan was dissolved were dosed to the rabbits in the fucoidan-administered group by natural intake. Thereafter, water was given to the rabbits to drink freely. This was continued for 3 weeks. Only water was given to the rabbits in the control group.

[5] = Example 3, FIG. 6, vs control group, t-test

fucoidan
image analysis of alcian blue-stained images (glycosaminoglycan) [1, 5]: significantly higher value
alcian blue staining of repaired regions (glycosaminoglycan content) ([1]; Example 3, FIGS. 2 and 3, proximal and distal trochlear groove, microscope): a large amount of glycosaminoglycan was contained
degree of healing (macroscopic observation) ([2]; Example 2, FIG. 1, vs control group): many of the damages were satisfactorily cured; also recorded: good therapeutic results
tissue in the damaged sites ([2]; Example 2, control filled with collagen fibers, fibroblasts): substituted with chondroblasts and cartilage tissues
image analysis of safranin-O-stained images (proteoglycan) [3, 5]: significantly higher value
safranin-O staining of repaired regions (proteoglycan content) ([3]; Example 3, FIGS. 4 and 5, proximal and distal trochlear groove, microscope): a large amount of proteoglycan was contained
signs of side effects [4]: no signs of side effects
